Laboratory results: ChEMBL document CHEMBL1201862, “PubChem BioAssay data set” (2004)
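Results reflect a 48-hour exposure of cells in 96-well plates to compound at five concentrations. GI50: concentration for 50% inhibition of growth.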 Active and inactive are the calls of the source. Cut-off read from the data, not from the text of the source: active = GI50 up to about 1.1 µM and inactive = higher. Starred links: 1 amine or outer side, 2 acyl side, 3 side chain; linkers in the order of their positions; H or OH if unused. Non-standard residues stand in square brackets, D forms with d. Residues, ends and D or L forms follow the SMILES beside them. *: point of attachment. X34 = CC(=O)N(C)SCC(N[*:1])C(=O)[*:2]; Cbz = O=C(OCc1ccccc1)*; Bn = c1ccc(C*)cc1; For = O=C*

Assays:
Assay in all cases: NCI-60 cell line screen, 48 h
SNB-19 = system: SNB-19
UACC-62 = system: UACC-62
SK-MEL-2 = system: SK-MEL-2
SF-295 = system: SF-295
OVCAR-5 = system: OVCAR-5
SN12C = system: SN12C
HCC 2998 = system: HCC 2998
MOLT-4 = system: MOLT-4
BT-549 = system: BT-549
U-251 = system: U-251
786-0 = system: 786-0
NCI-H226 = system: NCI-H226
NCI/ADR-RES = system: NCI/ADR-RES
SW-620 = system: SW-620
CAKI-1 = system: CAKI-1
COLO 205 = system: COLO 205
KM12 = system: KM12
HOP-92 = system: HOP-92
HL-60 = system: HL-60

| SMILES | GI50 (SNB-19) | GI50 (UACC-62) | GI50 (SK-MEL-2) | GI50 (SF-295) | GI50 (OVCAR-5) | GI50 (SN12C) | GI50 (HCC 2998) | GI50 (MOLT-4) | GI50 (BT-549) | GI50 (U-251) | GI50 (786-0) | GI50 (NCI-H226) | GI50 (NCI/ADR-RES) | GI50 (SW-620) | GI50 (CAKI-1) | GI50 (COLO 205) | GI50 (KM12) | GI50 (HOP-92) | GI50 (HL-60) |
| --- | --- | --- | --- | --- | --- | --- | --- | --- | --- | --- | --- | --- | --- | --- | --- | --- | --- | --- | --- |
| CCOC(=O)[C@@H]1C[C@H]1c1ccc(O)c(O)c1 | > 100 µM (inactive) | 17.1 µM (inactive) | 18.2 µM (inactive) | > 100 µM (inactive) | > 100 µM (inactive) | 75.5 µM (inactive) | 31.6 µM (inactive) | 18.5 µM (inactive) | 43.4 µM (inactive) | 69.7 µM (inactive) | 41.4 µM (inactive) | 70.6 µM (inactive) | 43.3 µM (inactive) | 18.6 µM (inactive) | 29.7 µM (inactive) | 57.8 µM (inactive) | > 100 µM (inactive) | > 100 µM (inactive) |  |
| CC1=NN(c2nc(N)nc(/C(C#N)=C\c3cccc([N+](=O)[O-])c3)n2)C(C)(C)C1 | 10.8 µM (inactive) | 19.6 µM (inactive) | 16.4 µM (inactive) | 10.2 µM (inactive) | 24.4 µM (inactive) | 25.2 µM (inactive) | 12.2 µM (inactive) | 34.6 µM (inactive) | > 20.7 µM (inactive) | 6.78 µM (inactive) | 6.58 µM (inactive) |  | 18.8 µM (inactive) | 8.75 µM (inactive) | 12.4 µM (inactive) | 14.9 µM (inactive) | 14.9 µM (inactive) | > 24.4 µM (inactive) | 0.205 µM (active) |
| O=c1[nH]c2cc([N+](=O)[O-])c(N(CCO)CCO)c([N+](=O)[O-])c2[nH]1 | 39.8 µM (inactive) | 24.1 µM (inactive) | 37.6 µM (inactive) | 28.4 µM (inactive) | 31.9 µM (inactive) | 34.8 µM (inactive) |  | 24.5 µM (inactive) | 18.5 µM (inactive) | 44.1 µM (inactive) | 35.4 µM (inactive) | 24 µM (inactive) | 31.8 µM (inactive) | 41.2 µM (inactive) | 29 µM (inactive) | 20 µM (inactive) | 22.6 µM (inactive) | 41 µM (inactive) | 28.2 µM (inactive) |
| Cc1cc2ccc(N)nc2nc1O | > 100 µM (inactive) | > 100 µM (inactive) | > 100 µM (inactive) | > 100 µM (inactive) | > 100 µM (inactive) | > 100 µM (inactive) |  |  | > 100 µM (inactive) | 99.1 µM (inactive) | > 100 µM (inactive) | 51.6 µM (inactive) | > 100 µM (inactive) | > 100 µM (inactive) | > 100 µM (inactive) | > 100 µM (inactive) | > 100 µM (inactive) | > 100 µM (inactive) | > 100 µM (inactive) |
| CCc1ncnc2cc(OCC3CO3)c(OC)cc12 (stereo not given) | 6.52 µM (inactive) | 2.86 µM (inactive) | 3.32 µM (inactive) | 3.15 µM (inactive) | 13 µM (inactive) | 1.3 µM (inactive) |  | 0.153 µM (active) | 3.95 µM (inactive) | 4.31 µM (inactive) | 0.902 µM (active) | 6.49 µM (inactive) | 7.23 µM (inactive) | 0.735 µM (active) | 5.06 µM (inactive) | 8.17 µM (inactive) | 5.58 µM (inactive) | 4.26 µM (inactive) | 0.889 µM (active) |
| COc1ccc(N2CC(=O)N(C(=O)COc3ccc(OCC(=O)N4C(=O)CN(c5ccc(OC)cc5)C4=S)cc3)C2=S)cc1 | > 100 µM (inactive) | 70.8 µM (inactive) | > 100 µM (inactive) | > 100 µM (inactive) | > 100 µM (inactive) | > 100 µM (inactive) | > 100 µM (inactive) | 30 µM (inactive) | > 100 µM (inactive) | > 100 µM (inactive) | > 100 µM (inactive) | > 100 µM (inactive) | > 100 µM (inactive) | > 100 µM (inactive) | > 100 µM (inactive) | > 100 µM (inactive) | 39.1 µM (inactive) | > 100 µM (inactive) |  |
| O=CN(CCN1CCCC1)C1CCc2cc(Cl)c(Cl)cc2C1 (stereo not given) | 0.851 µM (active) |  |  | 0.166 µM (active) | 17.4 µM (inactive) | 11 µM (inactive) | 17.5 µM (inactive) | 24.4 µM (inactive) | 14.1 µM (inactive) | 0.513 µM (active) | 7.55 µM (inactive) |  | 19.5 µM (inactive) | 27.3 µM (inactive) | 18.9 µM (inactive) | 20.4 µM (inactive) | 4.5 µM (inactive) | 33.2 µM (inactive) | 19.2 µM (inactive) |
| N#CCCN(CCC#N)c1ccc(/C=C2\N=C(c3ccccc3)N(c3ccccn3)C2=O)cc1 | > 100 µM (inactive) | > 100 µM (inactive) | > 100 µM (inactive) | > 100 µM (inactive) | > 100 µM (inactive) | > 100 µM (inactive) |  | > 100 µM (inactive) | > 100 µM (inactive) | > 100 µM (inactive) | > 100 µM (inactive) | > 100 µM (inactive) | > 100 µM (inactive) | > 100 µM (inactive) | > 100 µM (inactive) | > 100 µM (inactive) | > 100 µM (inactive) | > 100 µM (inactive) | > 100 µM (inactive) |
| N#C/C(C(=O)Nc1ccccc1)=C(/N)N1CCOCC1 | > 100 µM (inactive) | > 100 µM (inactive) | > 100 µM (inactive) | > 100 µM (inactive) | > 100 µM (inactive) | > 100 µM (inactive) | > 100 µM (inactive) | > 100 µM (inactive) | > 100 µM (inactive) | > 100 µM (inactive) | > 100 µM (inactive) | > 100 µM (inactive) | > 100 µM (inactive) | > 100 µM (inactive) | > 100 µM (inactive) | > 100 µM (inactive) | > 100 µM (inactive) | > 100 µM (inactive) |  |
| Cc1nc2ccccc2n1COC(Cn1ccnc1)c1ccc(Cl)cc1Cl (stereo not given) | > 100 µM (inactive) | 56.5 µM (inactive) | 64 µM (inactive) | 71 µM (inactive) | > 100 µM (inactive) | > 100 µM (inactive) | 76 µM (inactive) | 30.1 µM (inactive) | 33 µM (inactive) | 86.9 µM (inactive) | 75.7 µM (inactive) |  | 99.8 µM (inactive) | > 100 µM (inactive) | 17.4 µM (inactive) | 39.3 µM (inactive) | 71.4 µM (inactive) | 23.3 µM (inactive) | 30.5 µM (inactive) |
| Nc1ccccc1C(=O)CC1OC(=O)c2ccccc21 (stereo not given) | 42.1 µM (inactive) | 64.9 µM (inactive) | 14 µM (inactive) | > 100 µM (inactive) | > 100 µM (inactive) | > 100 µM (inactive) |  | > 100 µM (inactive) | 35 µM (inactive) | 48.4 µM (inactive) | 88.5 µM (inactive) | > 100 µM (inactive) | 60.1 µM (inactive) | > 100 µM (inactive) |  |  | 33.4 µM (inactive) | > 100 µM (inactive) | > 100 µM (inactive) |
| Nc1nccc(NCC2(CO)CCC2)n1 |  | > 100 µM (inactive) | > 100 µM (inactive) | > 100 µM (inactive) | > 100 µM (inactive) | > 100 µM (inactive) | > 100 µM (inactive) | > 100 µM (inactive) | > 100 µM (inactive) | > 100 µM (inactive) | > 100 µM (inactive) | > 100 µM (inactive) | > 100 µM (inactive) | > 100 µM (inactive) | 63.4 µM (inactive) | > 100 µM (inactive) | > 100 µM (inactive) | > 100 µM (inactive) | > 100 µM (inactive) |
| Oc1[nH]c(Nc2ccc(Cl)c(C(F)(F)F)c2)nc2ncnc1-2 | 45.1 µM (inactive) | 32.6 µM (inactive) | 25.5 µM (inactive) | > 100 µM (inactive) | 65.9 µM (inactive) | 32.5 µM (inactive) | 24.7 µM (inactive) | 23.2 µM (inactive) | 36.6 µM (inactive) | 50.5 µM (inactive) | 25.7 µM (inactive) | > 100 µM (inactive) | > 100 µM (inactive) | 70 µM (inactive) | > 100 µM (inactive) | 27.2 µM (inactive) | 44.8 µM (inactive) | 58.5 µM (inactive) |  |
| O=C1/C(=C/c2ccccc2)CCCc2ccccc21 | 14 µM (inactive) | 15.1 µM (inactive) | 16.2 µM (inactive) | 19 µM (inactive) | 19.1 µM (inactive) | 19.6 µM (inactive) |  | 18.5 µM (inactive) | 20 µM (inactive) | 15.7 µM (inactive) | 16.4 µM (inactive) | 18.4 µM (inactive) | 20 µM (inactive) | 17.7 µM (inactive) | 22.3 µM (inactive) | 18.6 µM (inactive) | 18.1 µM (inactive) | 15.3 µM (inactive) | 15.2 µM (inactive) |
| CC(=O)N(C)SCC(NC(=O)C(Cc1ccccc1)NC(=O)OCc1ccccc1)C(=O)NC(Cc1ccccc1)C(=O)NC(Cc1cn(C=O)c2ccccc12)C(=O)NC(CCCCNC(=O)OCc1ccccc1)C(=O)NC(C(=O)NC(CSN(C)C(C)=O)C(=O)NC(C(N)=O)C(C)OCc1ccccc1)C(C)OCc1ccccc1 (stereo not given) (Cbz-F[X34]FW(For)K(Cbz)T(Bn)[X34]T(Bn)-NH2; configuration not given here) | 18.7 µM (inactive) | 84.9 µM (inactive) | 3.77 µM (inactive) | 16.1 µM (inactive) | > 100 µM (inactive) | > 100 µM (inactive) | > 100 µM (inactive) | > 100 µM (inactive) | 21.1 µM (inactive) | 32.2 µM (inactive) | 24.1 µM (inactive) | > 100 µM (inactive) | > 100 µM (inactive) | > 100 µM (inactive) |  | > 100 µM (inactive) | > 100 µM (inactive) | 19.7 µM (inactive) | > 100 µM (inactive) |
